# Test results as given in paper PMC12287680, “Efficient Acyloxymethylation of Psilocin and Other Tryptamines Yielding ACOM Prodrugs for Psychedelic‐Assisted Therapy” (Archiv Der Pharmazie, 2025).
# Counter-ions that a name gives are not always drawn. Marks after values point to notes of the source that are not given here.
# Columns and labels:
# [1] = Half-lives in human saliva at 37°C; assay type: in vitro ADME; conditions: fresh resting whole human saliva, mean of three measurements with fresh samples of three individuals, 5·10^−5 M, read-out: Half‐lives t 1/2 at 37°C in human Saliva
# Experimental: Finally, we studied the stability of the compounds in human saliva. […] In line with the literature, the stability of a given compound in human saliva varied considerably between subjects (Figure 7).
# (§1) The kinetic studies were carried out by following the loss of substrate under the indicated conditions using HPLC‐UV. Pooled human plasma was obtained commercially (Biowest, France), while human saliva was freshly collected with the written informed consent of the saliva donors. In a typical run, the reaction was initiated by adding the prewarmed medium to a prewarmed aliquot of a 5 mM stock solution of the analyte in DMSO, resulting in a final concentration of 5·10^−5 M. A volume of 100 µL samples of the reaction mixture were taken at suitable intervals, and the reaction was either stopped by cooling to –20°C (PBS) or by protein precipitation using 2:1 (v/v) acetonitrile (saliva, plasma). Precipitates were removed by centrifugation and decantation prior to HPLC analysis. Pseudo‐first‐order rate constants for the observed degradation were determined from the slope of linear plots of ln(peak area) versus time. More detailed descriptions are provided in the Supporting Information.
# [2] = Half-lives in PBS at 80°C (nonspecific hydrolysis); assay type: physicochemical; conditions: for half-life at 50 µM: pH 7.3, PBS, 80°C, 5·10^−5 M, footnote: no replicates; for stability in buffer compared with plasma: buffer at 80°C versus plasma at 37°C, same concentration
# Experimental: As a measure of the drug release rate in the systemic blood circulation, we determined the half‐lives of 15, 16, and 23–26 in pooled human plasma. […] This illustrates that the drug release kinetics in human plasma are highly dependent upon the chosen acyl residue, which allows for tailoring the prodrug's pharmacokinetic profile to the therapeutic requirements. To assess the contribution of nonspecific hydrolysis to the observed kinetics, we incubated the prodrugs at the same concentration in the buffer used to dilute the plasma samples.
# as §1
# [3] = parameters: method as in earlier work; conditions: rats, ref 10b, cited from earlier work
# [4] = Half-lives in pooled human plasma at 37°C; assay type: in vitro ADME; conditions: for half-lives t1/2 in human plasma (v/v) at 37°C: 100% plasma, [prodrug]0 =50 µM
# Experimental: As a measure of the drug release rate in the systemic blood circulation, we determined the half‐lives of 15, 16, and 23–26 in pooled human plasma. […] To assess the contribution of nonspecific hydrolysis to the observed kinetics, we incubated the prodrugs at the same concentration in the buffer used to dilute the plasma samples.
# as §1
# ^a The release kinetics of the prodrugs were evaluated in vitro in analogy to the precedent literature.^[1] […] Pooled human blood plasma (Biowest, France) and sterile Dulbecco’s phosphate buffered saline (PBS) pH 7.3 (Sigma-Aldrich, Germany) were used for all experiments. In short, prewarmed (37°C) human plasma and prewarmed (37°C) prodrug (5 mM stock in DMSO) were gently mixed, which afforded a 50 µM solution of the prodrug in human plasma. Incubation was continued at 37°C, and 100 µL samples of the mixture were taken at appropriate time intervals. The samples were immediately quenched with acetonitrile (2:1), centrifuged, decanted, and analyzed via HPLC-UV. Half-lives were determined assuming first-order kinetics; specific values are the mean of triplicates ± standard deviation. For more details, please refer to the SI.
# [5] = Passive membrane permeability across an artificial membrane; assay type: in vitro ADME; conditions: for Papp: PAMPA, pH 7.4, read-out: Passive membrane permeability Pe
# Description: As expected, all tested prodrugs have a high propensity for passive passage across an artificial membrane at pH 7.4 (≥ 8·10^−6 cm/s). […] The loss of the intramolecular hydrogen bond between the phenolic hydroxy group and the tertiary amino group upon O‐substitution appears to decrease the membrane permeability of the prodrugs in comparison to the parent drug. This effect is apparently not entirely compensated by the ACOM promoiety, which in itself is not completely apolar due to the acetal and ester oxygens. The intramolecular hydrogen bond may reduce the polarity of 4‐hydroxytryptamines by introducing a conformational restraint and thereby favoring conformations with a smaller polar surface area and a lower dipole moment and by decreasing hydrogen bonding to the aqueous solvent. In addition, the intramolecular hydrogen bond in 4‐hydroxytryptamines lowers the pK a of the amine and therefore shifts the protonation equilibrium toward the neutral species. The higher proportion of the uncharged species in 4‐hydroxytryptamines compared with their O‐substituted congeners further increases the difference in passive membrane permeability.
# [6] = pH 7.4; cited from earlier work
# [7] = cited from earlier work
# [8] = in DMSO; cited from earlier work
# [9] = 100% (undiluted) pooled human plasma, 37°C, 100% pooled human plasma, 5·10^−5 M
# [10] = 10% pooled human plasma in PBS, pH 7.3, 37°C, 10% pooled human plasma diluted with PBS, 5·10^−5 M
# [11] = diluted pooled human plasma, pH 7.3, even in diluted human plasma, read-out: half‐lives in human plasma
structure (smiles),measurement,setting,value
"CC(=O)Oc1ccccc1C(=O)O [ASA, Acetylsalicylic acid, reference compound]",half-life at 50 µM,[1],> 60 min
same,half-life at 50 µM,[2],27.9 ± 0.3 min
CN(C)CCc1c[nH]c2cccc(OCOC(=O)C(C)(C)C)c12 [Compound 2],detected systemic psilocin level,[3]; peroral dosing,relatively low
same,prodrug behaviour upon peroral dosing,[3],acts as a psilocin prodrug
CCN(C)CCc1cn(C(=O)OCc2ccccc2)c2cccc(O)c12 [Compound 15],half-life at 50 µM,[4]; [9],> 5700 min
same,half-lives t1/2 in human plasma (v/v) at 37°C,[4]; 37°C,> 5700 (100%) min
same,drug release in undiluted human plasma during the observation period,[4]; 37°C,Neither the N‐carbamates 15 and 16 nor the sterically hindered pivaloyloxymethyl ethers 23 and 25 showed significant drug release
same,half-life at 50 µM,[2],136 ± 4 min
"CN(C)CCc1cn(C(=O)OCc2ccccc2)c2cccc(O)c12 [Compound 16, 1‐Benzyloxycarbonyl‐4‐Hydroxy‐N,N‐Dimethyltryptamine]",half-life at 50 µM,[4]; [9],> 5700 min
same,half-lives t1/2 in human plasma (v/v) at 37°C,[4]; 37°C,> 5700 (100%) min
same,drug release in undiluted human plasma during the observation period,[4]; 37°C,Neither the N‐carbamates 15 and 16 nor the sterically hindered pivaloyloxymethyl ethers 23 and 25 showed significant drug release
same,half-life at 50 µM,[2],184 ± 5 min
CCN(C)CCc1c[nH]c2cccc(OCOC(=O)C(C)(C)C)c12 [Compound 23],Papp,[5],9.7 ± 0.6 ×10⁻⁶ cm/s
same,Passive membrane permeability R (%) (mass retention),[5]; pH 7.4,2%
same,half-life at 50 µM,[1],< 20 min
same,half-life at 50 µM,[4]; [9],> 240 min
same,half-lives t1/2 in human plasma (v/v) at 37°C,[4]; 37°C,> 240 (100%) min
same,drug release in undiluted human plasma during the observation period,[4]; 37°C,Neither the N‐carbamates 15 and 16 nor the sterically hindered pivaloyloxymethyl ethers 23 and 25 showed significant drug release
same,half-life at 50 µM,[2],534 ± 12 min
CCCC(=O)OCOc1cccc2[nH]cc(CCN(C)CC)c12 [Compound 24],Papp,[5],8 ± 0.3 ×10⁻⁶ cm/s
same,Passive membrane permeability R (%) (mass retention),[5]; pH 7.4,6%
same,half-life at 50 µM,[1],< 10 min
same,half-life at 50 µM,[4]; [10],4.2 ± 0.1 min
same,half-life at 50 µM,[4]; [11],< 5 min
same,stability in buffer compared with plasma,[2],significantly more stable in buffer than in plasma
same,half-life at 50 µM,[2],73.3 ± 1.2 min
CN(C)CCc1c[nH]c2cccc(OCOC(=O)C(C)(C)C)c12 [Compound 25],Papp,[5],9.1 ± 0.5 ×10⁻⁶ cm/s
same,Passive membrane permeability R (%) (mass retention),[5]; pH 7.4,4%
same,half-life at 50 µM,[1],< 20 min
same,half-life at 50 µM,[4]; [9],> 240 min
same,half-lives t1/2 in human plasma (v/v) at 37°C,[4]; 37°C,> 240 (100%)^b min
same,"chemical and plasma stability, in words",[4]; in vitro,high chemical and plasma stability
same,drug release in undiluted human plasma during the observation period,[4]; 37°C,Neither the N‐carbamates 15 and 16 nor the sterically hindered pivaloyloxymethyl ethers 23 and 25 showed significant drug release
same,half-life at 50 µM,[2],458 ± 23 min
"CCCC(=O)OCOc1cccc2[nH]cc(CCN(C)C)c12 [Compound 26, 4‐n‐Butanoyloxymethyloxy‐N,N‐Dimethyltryptammonium Fumarate]",Papp,[5],8.1 ± 0.8 ×10⁻⁶ cm/s
same,Passive membrane permeability R (%) (mass retention),[5]; pH 7.4,7 ^e %
same,half-life at 50 µM,[1],< 10 min
same,half-life at 50 µM,[4]; [10],3.5 ± 0.8 min
same,half-life at 50 µM,[4]; [9],0.48 ± 0.1 min
same,half-life at 50 µM,[4]; [11],< 5 min
same,stability in buffer compared with plasma,[2],significantly more stable in buffer than in plasma
same,half-life at 50 µM,[2],58.6 ± 3.5 min
"CCN(C)CCc1c[nH]c2cccc(O)c12 [Compound 30, reference compound]",Passive membrane permeability Pe,[5]; pH 7.4,11 ± 1 10^−6cm/s
same,Passive membrane permeability R (%) (mass retention),[5]; pH 7.4,29%
same,"mass retention (R%), in words",[5]; pH 7.4,remarkably high
same,"membrane permeability, ranking","[5]; pH 7.4, compared with the prodrugs",highest membrane permeability
CN(C)CCc1c[nH]c2cccc(OP(=O)(O)O)c12 [psilocybin],logD7.4,[6],−0.89
CNS(=O)(=O)Cc1ccc2[nH]cc(CCN(C)C)c2c1 [sumatriptan],logP,[7],0.93
same,logD7.4,[6],−1.3
same,sulfonamide pKa,[8],~ 17.5
